Data on 19 molecules can be found in ChEMBL document CHEMBL4007398, “Inhibitors of Influenza Virus Polymerase Acidic (PA) Endonuclease: Contemporary Developments and Perspectives” (J Med Chem, 2017).

Data set [1] has as its target Polymerase acidic protein (Influenza A virus (A/Puerto Rico/8/1934(H1N1)), UniProt P03433). The experiment in a line: Inhibition of influenza A virus (A/PR/8/34) N-terminal PA endonuclease using 880 nucleotide ALMV cap1 primer RNA as substrate.
Data set [2] is described as follows: Inhibition of recombinant influenza A virus A/X-31 N-terminal 6His tagged-PA endonuclease (1 to 217 residues) expressed in Escherichia coli BL21-CodonPlus cells after 2 hrs using single stranded circular DNA plasmid M13mp18 as substrate by ethidium bromide staining based agarose gel electrophoresis. Also on record: species or system Influenza A virus (A/X-31(H3N2)).

A short description of data set [3]: Cytotoxicity against HEK293 cells assessed as reduction in cell viability by MTS assay. Format: cell-based. The settings on record: human. Background: Tetrazolium assays rely on reduction of a dye to a coloured formazan, in cell work by metabolically active cells.
Data set [4] has as its system Influenza A virus. The experiment in a line: Antiviral activity against influenza A virus (A/PR/8/34) infected in HEK293 cells after 24 hrs by firefly luciferase reporter gene based vRNP-reconstitution assay. The data set is classed as functional, cell-based. The settings on record: A/Puerto Rico/8/1934(H1N1), HEK293, 24 h. On the technique in general: A reporter such as luciferase makes a cellular process visible.

A short description of data set [5]: Cytotoxicity against MDCK cells assessed as reduction in cell viability after 48 hrs by WST-1 assay. Format: cell-based, Canis lupus familiaris. The settings on record: dog.
Data set [6] in a line: Antiviral activity against influenza A virus (A/WSN/33 (H1N1)) infected in MDCK cells after 48 hrs by crystal violet staining based plaque reduction assay. The data set is classed as functional, cell-based, Influenza A virus (A/WSN/1933(H1N1)). In general terms: Plaques are areas of infected cells; plaque reduction assays count them against a control.
Data set [7] concerns Influenza A virus. The experiment in a line: Antiviral activity against influenza A virus (A/PR/8/34) infected in MDCK cells assessed as reduction in viral yield incubated for 30 mins prior to infection measured after 24 hrs by plaque reduction assay. Format: functional, cell-based. Conditions: A/Puerto Rico/8/1934(H1N1).
For data set [8], the system named is Influenza A virus. The experiment in a line: Antiviral activity against influenza A virus. The data set is classed as functional.
Data set [9] in a line: Inhibition of recombinant influenza A virus A/X-31 N-terminal 6His tagged-PA endonuclease (1 to 217 residues) expressed in Escherichia coli BL21-CodonPlus cells after 1 hr using single stranded circular DNA plasmid M13mp18 as substrate by ethidium bromide staining based agarose gel electrophoresis. Also on record: species or system Influenza A virus (A/X-31(H3N2)).
Data set [10] is described as follows: Inhibition of influenza A virus N-terminal PA endonuclease.
A short description of data set [11]: Binding affinity to influenza A virus PA endonuclease by isothermal titration calorimetry.
Data set [12] is described as follows: Antiviral activity against influenza A virus (A/HK/415742/09(H1N1)) infected in MDCK cells by plaque reduction assay. Format: functional, cell-based, Influenza A virus (A/Hong Kong/415742/2009(H1N1)).
A short description of data set [13]: Cytotoxicity against MDCK cells by MTT assay. Format: cell-based, Canis lupus familiaris. The settings on record: dog.
A short description of data set [14]: Cytotoxicity against HEK293 cells assessed as reduction in cell viability after 24 hrs by MTS assay. The data set is classed as cell-based. The settings on record: human.
Data set [15] in a line: Cytotoxicity against MDCK cells assessed as reduction in cell viability after 24 hrs by MTS assay. Format: cell-based, Canis lupus familiaris. Conditions: dog.
Data set [16] concerns Influenza A virus. Put plainly: Antiviral activity against influenza A virus infected in HEK293 cells after 24 hrs by firefly luciferase reporter gene based vRNP-reconstitution assay. Conditions: HEK293, 24 h. The data set is classed as functional, cell-based.
Data set [17] concerns Influenza A virus. Put plainly: Antiviral activity against influenza A virus ((A/PR/8/34) infected in MDCK cells assessed as reduction in viral yield after 24 hrs by qRT-PCR assay. Conditions: A/Puerto Rico/8/1934(H1N1). The data set is classed as functional.
Data set [18] is described as follows: Inhibition of recombinant influenza A virus A/X-31 N-terminal PA endonuclease (1 to 217 residues) after 2 hrs using single stranded circular DNA plasmid M13mp18 as substrate by ethidium bromide staining based agarose gel electrophoresis. More on the design: species or system Influenza A virus (A/X-31(H3N2)).
The subject of the next data set is H5N1 subtype. Put plainly: Antiviral activity against influenza A virus H5N1 infected in MDCK cells assessed as reduction of virus-induced cytopathic effect after 48 hrs by CellTiter-Glo luminescent assay. Format: functional, cell-based.
The test system of a further data set is Influenza A virus (H1N1). The experiment in a line: Antiviral activity against influenza A virus H1N1-pdm09 infected in MDCK cells assessed as reduction of virus-induced cytopathic effect after 48 hrs by CellTiter-Glo luminescent assay. The data set is classed as functional, cell-based.
Data set [19] concerns Influenza B virus. The experiment in a line: Antiviral activity against influenza B virus infected in MDCK cells assessed as reduction of virus-induced cytopathic effect after 48 hrs by CellTiter-Glo luminescent assay. Format: functional, cell-based.
The nature of data set [20]: Cytotoxicity against MDCK cells assessed as reduction in cell viability after 48 hrs in presence of 5 % serum by CellTiter-Glo luminescent assay. The data set is classed as cell-based, Canis lupus familiaris. Conditions: dog.
Data set [21] is described as follows: Cytotoxicity against MDCK cells assessed as reduction in cell viability after 48 hrs in serum free conditions by CellTiter-Glo luminescent assay. The data set is classed as cell-based, Canis lupus familiaris. Conditions: dog.
Data set [22] is described as follows: Antiviral activity against influenza A virus H9N2 infected in MDCK cells assessed as reduction of virus-induced cytopathic effect after 48 hrs by CellTiter-Glo luminescent assay. The data set is classed as functional, cell-based, H9N2 subtype.
The next data set concerns Influenza A virus H3N2. Put plainly: Antiviral activity against influenza A virus H3N2 infected in MDCK cells assessed as reduction of virus-induced cytopathic effect after 48 hrs by CellTiter-Glo luminescent assay. The data set is classed as functional, cell-based.
Data set [23] can be described thus: Antiviral activity against influenza A virus H7N9 infected in MDCK cells assessed as reduction of virus-induced cytopathic effect after 48 hrs by CellTiter-Glo luminescent assay. The data set is classed as functional, cell-based, H7N9 subtype.
For data set [24], the system named is Influenza A virus. The experiment in a line: Antiviral activity against influenza A virus H1N1 infected in MDCK cells assessed as reduction of virus-induced cytopathic effect after 48 hrs by CellTiter-Glo luminescent assay. The data set is classed as functional, cell-based.
Data set [25] can be described thus: Cytotoxicity against MDCK cells after 48 hrs by MTT assay. Conditions: dog. Format: cell-based, Canis lupus familiaris.
Data set [26] is described as follows: Antiviral activity against influenza A virus (A/Sydney/5/97) infected in MDCK cells after 2 to 3 days by crystal violet staining based plaque reduction assay. Format: functional, cell-based, Influenza A virus (A/Sydney/5/1997(H3N2)).
Data set [27] relates to Influenza B virus. Put plainly: Antiviral activity against influenza B virus (B/Yamagata/16/88) infected in MDCK cells after 2 to 3 days by crystal violet staining based plaque reduction assay. The data set is classed as functional, cell-based. The settings on record: B/Yamagata/16/1988, MDCK.
Data set [28] is described as follows: Antiviral activity against influenza A virus (A/Chile/1/83) infected in MDCK cells after 2 to 3 days by crystal violet staining based plaque reduction assay. The data set is classed as functional, cell-based, Influenza A virus (A/Chile/1/1983(H1N1)).

Structures are written as SMILES.

Broadly, the IC50 is the concentration needed to halve the response being measured. `CC(C)/C=C1\N=C(CC(C)C)C(=O)N(O)C1=O` showed an IC50 in [1] of 5.1 to 5.5 µM.

Broadly, the CC50 is the concentration at which the toxic effect on the cells reaches its halfway point. The term EC50 denotes the concentration giving half of the maximal effect. For the molecule `NC(=S)N/N=C/c1cccc(O)c1O`, in [2], the concentration for half-maximal inhibition (IC50) turned out to be 37 µM. For the same molecule, in [3], the CC50 is greater than 200 µM. For the same molecule, a half-maximal effect with Influenza A virus [4] (EC50) was put at 63 µM.

Take `OC(CN1CCCCC1)Cn1c2c(c3ccccc31)CCCC2` (stereo unspecified): the CC50 at 48 h in data set [5] was greater than 200 µM. This molecule came in with an EC50 in data set [6] of 36.5 µM.

Turning to `O=C(O)/C(O)=C/C(=O)C1(Cc2ccc(Cl)cc2)CCN(CC2CCCCC2)CC1`, the EC50 with Influenza A virus [7] fell in the range of 180 to 710 nM.

In the data set on Influenza A virus [8], `CC(=O)Nc1cccc(-c2nc(C(=O)O)c(O)c(=O)[nH]2)c1` displayed an EC50 greater than 50 µM.

In the data set with Influenza A virus [8], `Cn1cnc(-c2nc(C(=O)O)c(O)c(=O)[nH]2)c1` displayed an EC50 greater than 50 µM.

`O=C(O)/C(O)=C/C(=O)C1(Cc2ccc(Cl)cc2)CCN(Cc2ccc(Cl)cc2)CC1`: the EC50 in the data set with Influenza A virus [7] is 180 to 710 nM.

On to `O=C(O)/C(O)=C/C(=O)C1(Cc2ccc(Cl)cc2)CCCN(Cc2ccccc2)C1` (stereo unspecified), for which the EC50 in the data set on Influenza A virus [7] lay in the range of 180 to 710 nM.

For the molecule `O=C(O)/C(O)=C/C(=O)C1(Cc2ccc(Cl)cc2)CCCN(S(=O)(=O)Cc2ccccc2)C1` (stereo unspecified), the EC50 with Influenza A virus [7] fell in the range of 180 to 710 nM.

Take `O=C(NCc1ccc(F)cc1)c1cccc(O)c1O`: in [9], the IC50 is 33 µM.

In data set [10], `O=c1[nH]cc(Br)cc1O` registered an IC50 of 16 µM.

The Kd is the free concentration of one partner at which half of the binding sites on the other are occupied at equilibrium, for simple one-to-one binding. Lower therefore signals higher affinity. `CN(C)c1ccc(/C=C2\C/C(=N\N=C3\C(=O)Nc4ccccc43)NC2=O)cc1`: the Kd in data set [11] came out at 1300 nM. Also, the response in data set [12] was half-maximal at 1500 nM (EC50). The CC50 in data set [13] was greater than 300 µM.

What is called EC90 is the concentration at which the effect reaches the 90% level. `O=C(N/N=C/c1cc(O)c(O)c(O)c1)c1cc(O)c(O)c(O)c1`: the CC50 at 24 h in [14] and in data set [15] was greater than 200 µM throughout. Moreover, the EC50 in the data set on Influenza A virus [16] came to 3.1 µM. In addition, the EC90 with Influenza A virus [17] is 3.5 µM. Further, the IC50 in data set [18] turned out to be 8.7 µM.

The molecule `O=C1Nc2ccccc2/C1=N\N=C1/C/C(=C2\C(=O)Nc3ccccc32)C(=O)N1` showed a Kd in [11] of 1100 nM. For the same molecule, the EC50 in data set [12] stood at 800 nM. This molecule also showed a CC50 in data set [13] greater than 400 µM.

For `NC(=O)N/N=C/c1cccc(O)c1O`, the IC50 in data set [2] was 24 µM. In addition, the CC50 in data set [3] is greater than 200 µM. In the data set with Influenza A virus [4], the EC50 was found to be 107 µM.

Regarding `C[C@@H](N1CN([C@H]2c3ccccc3CSc3ccccc32)n2ccc(=O)c(O)c2C1=O)C(F)(F)F`, the EC50 in the data set on H5N1 subtype amounted to 13.9 nM; in the data set with Influenza A virus (H1N1) it was 7 nM; in the data set with Influenza B virus [19], 12.8 nM; in data set [22], 12.2 nM; in the data set on Influenza A virus H3N2, 8.5 nM; in data set [23], 15.4 nM. For the same molecule, the EC50 in the data set on Influenza A virus [24] turned out to be 8.3 nM. Further, the values for the CC50 at 48 h in data set [20] and in data set [21] were 86.2 µM and 11.9 µM, respectively.

Turning to `O=C(O)/C(O)=C/C(=O)c1cccn1Cc1ccc(F)cc1`, in [2], the IC50 stood at 0.8 µM.

In [25], `O=C(O[C@@H]1Cc2c(O)cc(O)cc2O[C@@H]1c1ccc(O)c(O)c1)c1cc(O)c(O)c(O)c1` [EPICATECHIN GALLATE] returned a CC50 at 48 h of 526 µM. For the same molecule, the values for the EC50 (in [26]; in the data set with Influenza B virus [27]; in data set [28]) were 22.2 µM, 40.4 µM and 26.4 µM, respectively.

On to `O=C(O[C@@H]1Cc2c(O)cc(O)cc2O[C@@H]1c1cc(O)c(O)c(O)c1)c1cc(O)c(O)c(O)c1` [EPIGALOCATECHIN GALLATE], for which the CC50 at 48 h in [25] was found to be 275 µM. In addition, the EC50 in data set [26] was found to be 22.8 µM; in the data set with Influenza B virus [27], 26.1 µM; in data set [28], 28.4 µM.
